In patent US20190231705A1, “HIGH DRUG LOAD POLYMERIC NANOPARTICLE FORMULATIONS AND METHODS OF MAKING AND USING SAME” (Merck Sharp & Dohme Corp., priority 2018, published 2019):

Assay: Solution content after 80K centrifugation
Type: physicochemical
Conditions: grazoprevir/HPMCAS-L nanoparticle suspension after 80k centrifugation

C=C[C@@H]1C[C@]1(NC(=O)[C@@H]1C[C@@H]2CN1C(=O)[C@H](C(C)(C)C)NC(=O)O[C@@H]1C[C@H]1CCCCCc1nc3ccc(OC)cc3nc1O2)C(=O)NS(=O)(=O)C1CC1 [grazoprevir, (1aR,5S,8S, 10R,22aR)-N-[(1R,2S)-1-[(cyclopropylsulfonamido)-carbonyl]-2-ethenylcyclopropyl]-14-methoxy-5-(2-methylpropan-2-yl)-3,6-dioxo-1,1a,3,4,5,6,9,10,18,-19,20,21,22,22a-tetradecahydro-8H-7,10-methanocyclopropa[18,19][1,10,3,6]dioxadiaza-cyclononadecino[11,12-b]quinoxaline-8-carboxamide]
% Grazoprevir in solution: 4.2%
